Holding throughout (assay type): biochemical
One test addresses T1, NapH1 (Streptomyces sp. CNQ-525, UniProt A7KH27).
T1 sequence (A7KH27 42-527): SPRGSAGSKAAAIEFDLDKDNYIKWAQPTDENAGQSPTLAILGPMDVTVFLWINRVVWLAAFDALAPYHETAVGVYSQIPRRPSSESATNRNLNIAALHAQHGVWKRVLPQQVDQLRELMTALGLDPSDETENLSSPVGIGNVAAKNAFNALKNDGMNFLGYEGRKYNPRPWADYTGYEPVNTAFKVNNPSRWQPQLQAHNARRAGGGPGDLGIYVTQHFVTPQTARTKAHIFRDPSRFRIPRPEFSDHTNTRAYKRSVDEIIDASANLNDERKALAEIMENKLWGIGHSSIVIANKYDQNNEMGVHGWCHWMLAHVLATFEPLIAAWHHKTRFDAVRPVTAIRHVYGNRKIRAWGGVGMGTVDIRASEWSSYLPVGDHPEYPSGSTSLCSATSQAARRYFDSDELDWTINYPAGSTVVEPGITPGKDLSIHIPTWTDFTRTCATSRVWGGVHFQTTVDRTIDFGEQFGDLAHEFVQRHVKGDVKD
The experiment in a line: HPLC assay of chlorination-cyclization. To be noted: H2O2, chloride, pH 6; estimated, below detection limit of the assay.

The target in test [1] is T2, CoBPO (Corallina officinalis, UniProt Q8LLW7).
T2 sequence (Q8LLW7 1-598): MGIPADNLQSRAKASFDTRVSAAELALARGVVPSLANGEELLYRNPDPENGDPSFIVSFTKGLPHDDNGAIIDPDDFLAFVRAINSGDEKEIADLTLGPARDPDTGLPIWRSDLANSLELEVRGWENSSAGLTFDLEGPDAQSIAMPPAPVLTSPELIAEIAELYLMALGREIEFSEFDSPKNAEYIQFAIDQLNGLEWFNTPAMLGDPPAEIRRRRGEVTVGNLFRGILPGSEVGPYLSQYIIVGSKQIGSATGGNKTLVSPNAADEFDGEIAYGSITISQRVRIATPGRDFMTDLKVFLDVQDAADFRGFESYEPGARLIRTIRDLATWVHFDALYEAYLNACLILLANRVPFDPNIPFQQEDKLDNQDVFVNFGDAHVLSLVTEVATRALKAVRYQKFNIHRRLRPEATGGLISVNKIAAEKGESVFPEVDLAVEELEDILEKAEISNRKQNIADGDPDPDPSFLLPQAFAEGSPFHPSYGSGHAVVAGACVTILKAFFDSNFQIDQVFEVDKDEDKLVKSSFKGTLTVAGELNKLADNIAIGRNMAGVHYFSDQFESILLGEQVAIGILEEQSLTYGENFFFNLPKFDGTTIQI
The experiment in a line: conversion to products.

The target of test [2] is T2, CoBPO. Description: spectrophotometric MCD bromination assay. To be noted: H2O2, 0.2 M bromide, 30 °C.

Some results are limits rather than exact numbers.

The term Km denotes the concentration of substrate that gives half-maximal velocity. `CC(C)=CCC/C(C)=C/C[C@@]1(O)C(=O)c2cc(O)c(C)c(O)c2C(=O)[C@]1(Cl)CC=C(C)C` [compound 3, SF2415B1]: the Km on NapH1 is less than 1 µM.

On to `CC(C)=CCC1=C(O)C(=O)c2ccccc2C1=O` [lapachol, 4-hydroxy-3-(3-methylbut-2-enyl)naphthalene-1,2-dione], for which the conversion to products result on CoBPO [1] is recorded as “CoBPO catalyzed the complete conversion of lapachol into numerous products”.

For the molecule `CC1(C)CC(=O)C(Cl)C(=O)C1` [monochlorodimedone], the “spectrophotometric MCD bromination assay (290 nm)” value at CoBPO [2] is listed as “Corallina officinalis V-BPO (CoBPO) (below)”.

Source of the values: PMC3065929 (Journal of the American Chemical Society, 2011).
